Laboratory results reported in ChEMBL document CHEMBL4376905, “Selective Estrogen Receptor Degraders for the Potential Treatment of Cancer” (ACS Med Chem Lett, 2020).
Blank lines part the entries; values can stand above or below the molecule they belong to.

What was measured:
[1] = tested on: MCF7; assay: Antiproliferative activity against human MCF7 cells assessed as reduction in cell viability incubated for 6 days by WST1 dye based assay; assay type: functional; settings: MCF7, 144 h
[2] = biological target: T1, Estrogen receptor (Homo sapiens) (UniProt P03372); assay: Displacement of [3H]estradiol from full length human ERalpha by competitive radiometric binding assay relative to estradiol
T1 sequence (whole entry): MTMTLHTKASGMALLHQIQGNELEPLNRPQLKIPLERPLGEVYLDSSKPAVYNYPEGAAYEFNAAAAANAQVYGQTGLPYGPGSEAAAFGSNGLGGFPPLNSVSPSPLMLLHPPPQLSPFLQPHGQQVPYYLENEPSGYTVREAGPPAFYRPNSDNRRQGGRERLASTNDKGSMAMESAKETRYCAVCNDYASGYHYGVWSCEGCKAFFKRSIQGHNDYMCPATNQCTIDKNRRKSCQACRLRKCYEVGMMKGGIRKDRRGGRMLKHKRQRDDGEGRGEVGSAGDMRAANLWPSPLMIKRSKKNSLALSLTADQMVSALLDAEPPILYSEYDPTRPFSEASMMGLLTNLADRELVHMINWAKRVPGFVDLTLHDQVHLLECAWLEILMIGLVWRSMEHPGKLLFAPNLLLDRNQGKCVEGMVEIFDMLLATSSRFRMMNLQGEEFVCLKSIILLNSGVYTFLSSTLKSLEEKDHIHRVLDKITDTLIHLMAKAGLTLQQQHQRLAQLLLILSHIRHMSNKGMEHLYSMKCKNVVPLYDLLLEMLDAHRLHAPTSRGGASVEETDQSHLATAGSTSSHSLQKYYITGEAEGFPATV

[3] = biological target: T2, Estrogen receptor (Homo sapiens, UniProt P03372); assay: Induction of ERalpha protein degradation in human MCF7 cells assessed as reduction in ERalpha protein levels incubated for 24 hrs by In-cell western assay; assay type: cell-based; settings: for DC50: mcf7, read-out: IC50 (the source's name)
T2 sequence (P03372 whole entry): T1 sequence (whole entry)

- IC50 [1]: 9 nM
- RBA [2]: 37%
Compound: O=C(NCCCCOc1ccc(C(=C2C3CC4CC(C3)CC2C4)c2ccc(O)cc2)cc1)[C@H]1C[C@@H]2C=C[C@H]1C2

- DC50 [3]: 3 nM
Compound: O=C(NCCCOc1ccc(C(=C2C3CC4CC(C3)CC2C4)c2ccc(O)cc2)cc1)C12CC3CC(CC(C3)C1)C2

- IC50 [3]: 2 nM
Compound: O=C(NCCCCOc1ccc(C(=C2C3CC4CC(C3)CC2C4)c2ccc(O)cc2)cc1)C12CC3CC(CC1C3)C2

- DC50 [3]: 0.4 nM
Compound: O=C(NCCCCOc1ccc(C(=C2C3CC4CC(C3)CC2C4)c2ccc(O)cc2)cc1)C1CCCCC1
